Values quoted from earlier work in patent publication US20120315265A1, “HYDROGEL-FORMING POLYMER, AND PREPARATION PROCESS AND USES THEREOF” (CHANG GUNG UNIVERSITY, priority 2011, published 2012).

How the values were obtained:
[1] = in vivo
[2] = in the anterior chamber

## CC[C@@H]1C(=O)OC[C@@H]1Cc1cncn1C [pilocarpine]
[1]
  duration of pupillary constriction: up to 8 hour
[2]
  effective therapeutic dose for IOP reduction: 10 to 33 µg/mL
